In this experiment the target is SARS-CoV-2 Mac1 (Severe acute respiratory syndrome coronavirus 2, UniProt P0DTD1). As to the kind of experiment: biochemical. The conditions noted are these: for inhibition at 100 µM: read-out: %inhibition; for %inhibition: 100 µM, inhibitor.

Where a name gives a salt, the structure may show the parent alone.

For the molecule `CCCNS(=O)(=O)Nc1ncnc(OCCOc2ncc(Br)cn2)c1-c1ccc(Br)cc1` [Macitentan], the inhibition at 100 µM came to 10%.
For `NCc1ccc(S(N)(=O)=O)cc1` [Mafenide Acetate], the “%inhibition” value was determined as 0%.
Turning to `NCc1ccc(S(N)(=O)=O)cc1` [Mafenide hydrochloride], the “%inhibition” value turned out to be 8.456%.
For `CC(C)OC(=O)C(C(=O)OC(C)C)=C1SC=CS1` [Malotilate], the inhibition at 100 µM was determined as 0.00863%.
With `Cc1occc(=O)c1O` [Maltol], the inhibition at 100 µM is 15.5%.
As for `COC(=O)C1=C(C)NC(C)=C(C(=O)OCCN2CCN(C(c3ccccc3)c3ccccc3)CC2)C1c1cccc([N+](=O)[O-])c1` (stereo not shown) [Manidipine 2HCl], the inhibition at 100 µM was found to be 0%.
Same read-out and setting: in the case of `Cc1nnc(C(C)C)n1[C@@H]1C[C@H]2CC[C@@H](C1)N2CC[C@H](NC(=O)C1CCC(F)(F)CC1)c1ccccc1` [Maraviroc] it was 24.2%; in that of `CN1CCN(c2c(F)cc3c(=O)c(C(=O)O)cn4c3c2OCN4C)CC1` [Marbofloxacin], 18.3%; in that of `CNC(=O)[C@@H](NC(=O)[C@H](CC(C)C)[C@H](O)C(=O)NO)C(C)(C)C` [Marimastat (BB-2516)], 3.16%.
Turning to `Cc1ccc(NC(=O)c2ccc(CN3CCN(C)CC3)cc2)cc1Nc1nc(-c2cccnc2)cs1` [Masitinib (AB1010)], the inhibition at 100 µM is 7.66%.
Regarding `COC(=O)Nc1nc2cc(C(=O)c3ccccc3)ccc2[nH]1` [Mebendazole], the inhibition at 100 µM stood at 0%.
On to `CCN(CCCCOC(=O)c1ccc(OC)c(OC)c1)C(C)Cc1ccc(OC)cc1` (stereo not shown) [Mebeverine Hydrochloride], for which the inhibition at 100 µM is 5.64%.
Same read-out and setting: to `CCOC(=O)c1c(C)n(C)c2ccc(O)cc12` [Mecarbinate] belongs 0%.
In the case of `Cc1cccc(CN2CCN(C(c3ccccc3)c3ccc(Cl)cc3)CC2)c1` (stereo not shown) [Meclizine 2HCl], the inhibition at 100 µM worked out at 9.09%.
With `Cc1ccc(Cl)c(Nc2ccccc2C(=O)O)c1Cl` [Meclofenamate Sodium], the inhibition at 100 µM stood at 5.23%.
With `CN(C)CCOC(=O)COc1ccc(Cl)cc1` [Meclofenoxate (Centrophenoxine) HCl], the inhibition at 100 µM is 16.9%.
As to `Cc1cccc(C(C)c2c[nH]cn2)c1C` (stereo not shown) [Medetomidine HCl], the inhibition at 100 µM was 21.9%.
With `CC(=O)O[C@]1(C(C)=O)CC[C@H]2[C@@H]3C[C@H](C)C4=CC(=O)CC[C@]4(C)[C@H]3CC[C@@]21C` [Medroxyprogesterone acetate], the inhibition at 100 µM came out at 26.1%.
Same read-out and setting: in the case of `Cc1cccc(Nc2ccccc2C(=O)O)c1C` [Mefenamic Acid] it was 21%; in that of `O[C@@H](c1cc(C(F)(F)F)nc2c(C(F)(F)F)cccc12)[C@H]1CCCCN1` [Mefloquine HCl], 0%.
For the molecule `CC(=O)O[C@]1(C(C)=O)CC[C@H]2[C@@H]3C=C(C)C4=CC(=O)CC[C@]4(C)[C@H]3CC[C@@]21C` [Megestrol Acetate], the inhibition at 100 µM was 23.5%.
Turning to `CNC[C@H](O)[C@@H](O)[C@H](O)[C@H](O)CO` [Meglumine], the inhibition at 100 µM amounted to 15.6%.
In the case of `COc1ccc2[nH]cc(CCNC(C)=O)c2c1` [Melatonin], the inhibition at 100 µM was determined as 9.33%.
In the case of `Cc1cnc(NC(=O)C2=C(O)c3ccccc3S(=O)(=O)N2C)s1` [Meloxicam], the inhibition at 100 µM is 41.6%.
On to `N[C@@H](Cc1ccc(N(CCCl)CCCl)cc1)C(=O)O` [Melphalan], for which the inhibition at 100 µM worked out at 3.44%.
Regarding `CC12CC3CC(C)(C1)CC(N)(C3)C2` [Memantine HCl], the inhibition at 100 µM stood at 0%.
On the same count and under the same terms, to `CC1=CC(=O)c2ccccc2C1=O` [Menadione] belongs 1.18%; to `C[N+]1(C)CCCC(OC(=O)C(O)(c2ccccc2)c2ccccc2)C1` (stereo not shown) [Mepenzolate Bromide], 0%; to `Cc1ccccc1OCC(O)CO` (stereo not shown) [Mephenesin], 7.81%.
For `[O-][n+]1cccc(CO)c1` [Mepiroxol], the inhibition at 100 µM was 12.3%.
For the molecule `Cc1cccc(C)c1NC(=O)C1CCCCN1C` (stereo not shown) [Mepivacaine HCl], the “%inhibition” value is given as 2.617%.
On the same count and under the same terms, in the case of `Cc1cccc(C)c1NC(=O)C1CCCCN1C` (stereo not shown) [Mepivacaine] it was 0%.
On to `C[C@H]1C[C@H]2[C@@H]3CCC4=CC(=O)C=C[C@]4(C)[C@H]3C(=O)C[C@]2(C)[C@@]1(O)C(=O)CO` [Meprednisone], for which the inhibition at 100 µM stood at 8.14%.
Regarding `CCC1(c2cccc(O)c2)CCCCN(C)C1` (stereo not shown) [Meptazinol HCl], the inhibition at 100 µM stood at 0%.
`COc1ccc(O)cc1` [Mequinol]: the inhibition at 100 µM is 0%.
Regarding `S=c1[nH]cnc2nc[nH]c12` [Mercaptopurine (6-MP)], the inhibition at 100 µM worked out at 19.8%.
On to `C[C@@H](O)[C@H]1C(=O)N2C(C(=O)O)=C(S[C@@H]3CN[C@H](C(=O)N(C)C)C3)[C@H](C)[C@H]12` [Meropenem Trihydrate], for which the “%inhibition” value is given as 21.42%.
Regarding `C[C@@H](O)[C@H]1C(=O)N2C(C(=O)O)=C(S[C@@H]3CN[C@H](C(=O)N(C)C)C3)[C@H](C)[C@H]12` [Meropenem], the “%inhibition” value is listed as 0%.
Turning to `Nc1ccc(O)c(C(=O)O)c1` [Mesalamine], the inhibition at 100 µM is 0%.
On the same count and under the same terms, in the case of `O=S(=O)(O)CCS` [Mesna] it was 24.6%; in that of `CN1CCCCC1CCN1c2ccccc2Sc2ccc([S+](C)[O-])cc21` (stereo not shown) [Mesoridazine Besylate], 6.43%.
With `C#C[C@]1(O)CC[C@H]2[C@@H]3CCc4cc(OC)ccc4[C@H]3CC[C@@]21C` [Mestranol], the inhibition at 100 µM was found to be 0%.
Turning to `CC(C)NCC(O)c1cc(O)cc(O)c1` (stereo not shown) [Metaproterenol Sulfate], the inhibition at 100 µM worked out at 2.56%.
Still for that read-out and setting: to `C[C@H](N)[C@H](O)c1cccc(O)c1` [Metaraminol Bitartrate] belongs 8.05%.
Regarding `Cc1cc(C)cc(OCC2CNC(=O)O2)c1` (stereo not shown) [Metaxalone], the inhibition at 100 µM was found to be 0%.
For `CN(C)C(=N)NC(=N)N` [Metformin HCl], the inhibition at 100 µM was 32.6%.
The same measure, in the same setting: in the case of `CC(=O)OC(C)C[N+](C)(C)C` (stereo not shown) [Methacholine chloride] it was 8.52%; in that of `C=C1c2cccc(O)c2C(=O)C2=C(O)[C@]3(O)C(=O)C(C(N)=O)=C(O)[C@@H](N(C)C)[C@@H]3[C@@H](O)[C@H]12` [Methacycline HCl], 0%; in that of `CC(=O)/N=c1/sc(S(N)(=O)=O)nn1C` [Methazolamide], 0%.
`C1N2CN3CN1CN(C2)C3` [Methenamine]: the inhibition at 100 µM was 1.76%.
As to `Cn1ccnc1S` [Methimazole], the inhibition at 100 µM is 0%.
The same measure, in the same setting: to `COc1ccccc1OCC(O)COC(N)=O` (stereo not shown) [Methocarbamol] belongs 36.3%.
As to `CN(Cc1cnc2nc(N)nc(N)c2n1)c1ccc(C(=O)N[C@@H](CCC(=O)O)C(=O)O)cc1` [Methotrexate disodium], the “%inhibition” value was determined as 0%.
Regarding `CN(Cc1cnc2nc(N)nc(N)c2n1)c1ccc(C(=O)N[C@@H](CCC(=O)O)C(=O)O)cc1` [Methotrexate], the “%inhibition” value was determined as 59.68%.
Regarding `COc1c2occc2cc2ccc(=O)oc12` [Methoxsalen], the inhibition at 100 µM was 14.7%.
The same measure, in the same setting: to `CNC(C)Cc1ccccc1OC` (stereo not shown) [Methoxyphenamine Hydrochloride] belongs 0%; to `C[N+]1(C)[C@@H]2C[C@@H](OC(=O)[C@H](CO)c3ccccc3)C[C@H]1[C@@H]1O[C@@H]12` [Methscopolamine], 0%.
For the molecule `CN1C(CCl)Nc2cc(Cl)c(S(N)(=O)=O)cc2S1(=O)=O` (stereo not shown) [Methyclothiazide], the inhibition at 100 µM was determined as 0%.
Take `COC(=O)CCC(=O)CN` [Methyl Aminolevulinate Hydrochloride]: the inhibition at 100 µM turned out to be 3.98%.
Same read-out and setting: in the case of `COC(=O)c1ccccc1O` [Methyl salicylate] it was 7.14%; in that of `CC[N+](C)(CC)CCOC(=O)C(O)(c1ccccc1)c1ccccc1` [Methylbenactyzine Bromide], 9.38%.
In the case of `C[C@](N)(Cc1ccc(O)c(O)c1)C(=O)O` [Methyldopa], the inhibition at 100 µM is 8.62%.
For the molecule `CN(C)c1ccc2nc3ccc(=[N+](C)C)cc-3sc2c1` [Methylene Blue], the inhibition at 100 µM came to 43.3%.
Consider `C[C@H]1C[C@@H]2[C@H]([C@@H](O)C[C@@]3(C)[C@H]2CC[C@]3(O)C(=O)CO)[C@@]2(C)C=CC(=O)C=C12` [Methylprednisolone], for which the inhibition at 100 µM amounted to 39.6%.
As to `Cc1cc(=O)[nH]c(=S)[nH]1` [Methylthiouracil], the inhibition at 100 µM came to 0%.
Regarding `Cc1cc2c(cc1S(N)(=O)=O)S(=O)(=O)CCC2` [Meticrane], the inhibition at 100 µM is 0%.
Still for that read-out and setting: to `CCN(CC)CCNC(=O)c1cc(Cl)c(N)cc1OC` [Metoclopramide HCl] belongs 0%; to `Cc1ccccc1N1C(=O)c2cc(S(N)(=O)=O)c(Cl)cc2NC1C` (stereo not shown) [Metolazone], 0%.
`COCCc1ccc(OCC(O)CNC(C)C)cc1` (stereo not shown) [Metoprolol Tartrate]: the “%inhibition” value was found to be 45.82%.
The same measure, in the same setting: to `COCCc1ccc(OCC(O)CNC(C)C)cc1` (stereo not shown) [Metoprolol succinate] belongs 1.216%; to `COCCc1ccc(OCC(O)CNC(C)C)cc1` (stereo not shown) [Metoprolol], 3.241%.
Consider `Cc1ncc([N+](=O)[O-])n1CCO` [Metronidazole], for which the inhibition at 100 µM turned out to be 16.9%.
In the case of `CC(C)(C(=O)c1cccnc1)c1cccnc1` [Metyrapone], the inhibition at 100 µM worked out at 5.33%.
With `CC[C@H](C)C(=O)O[C@H]1CCC=C2C=C[C@H](C)[C@H](CC[C@@H]3C[C@@H](O)CC(=O)O3)[C@H]21` [Mevastatin], the inhibition at 100 µM came out at 12.1%.
The same measure, in the same setting: to `Cc1cccc(C)c1OCC(C)N` (stereo not shown) [Mexiletine HCl] belongs 9.05%; to `CC1(C)S[C@@H]2[C@H](NC(=O)[C@H](NC(=O)N3CCN(S(C)(=O)=O)C3=O)c3ccccc3)C(=O)N2[C@H]1C(=O)O` [Mezlocillin Sodium], 6.75%.

As a reminder, the inhibition is the drop in the measured response relative to a control, in per cent. In general, %inhibition refers to the relative decrease from the control value, in per cent. A low value points to a weak effect.
